Legend:
[1] = Porphyrin elimination after oral administration of 5-aminolevulinic acid; assay type: in vivo
Protocol: The patient is administered 5-aminolevulinic acid (also referred to as 8-aminolevulinic acid), which is the first compound in the porphyrin synthesis pathway (i.e., the pathway that leads to heme in mammals). The 5-aminolevulinic acid is preferably administered orally at a dosage of approximately 5 mg of 5-aminolevulinic acid per kilogram of the patient's body weight. The patient can drink water upon taking the 5-aminolevulinic acid. The patient can wait approximately eight hours before urinating.
Approximately eight hours after oral administration of the 5-aminolevulinic acid, a bodily fluid sample is collected from the patient, and this bodily fluid sample is optically analyzed to measure a concentration of porphyrin therein. Preferably, multiple bodily fluid samples are taken at two hour intervals (i.e., one initial sample at the time of administration, and then subsequent samples taken at two hours, four hours, six hours and eight hours after administration). The bodily fluid being analyzed may be urine and/or blood.
Porphyrin is synthesized by the 5-aminolevulinic acid which is administered to the patient.

[2] = porphyrin synthesized from administered 5-aminolevulinic acid; cited from earlier work

- porphyrin retention time ([1]; bladder cancer patients): up to eight
- porphyrin eliminated through urine ([1]; healthy person, after four hours following administration of 5-aminolevulinic acid): approximately 90%
SMILES: C1=Cc2cc3ccc(cc4nc(cc5ccc(cc1n2)[nH]5)C=C4)[nH]3 [Porphyrin, porphyrin]
- half-life [2]: approximately two
